Results as given in patent US20050288373A1, “Methods of treating various conditions by administration of sustained release L-arginine” (priority 2002, published 2005).

Columns and labels:
total cholesterol = assay: Change in total cholesterol levels; format: in vivo, human; details: resulting from treatment, 3 weeks
Procedure: (§1) Endothelium-dependent vasodilation was assessed by brachial artery ultrasound using computer-assisted image analysis; ADMA and L-arginine plasma concentrations were determined by a validated HPLC method.
(§2) In the study described in Example 15, the change in total cholesterol (TC), LDL cholesterol, HDL cholesterol, and triglycerides was analyzed pre- and post-treatment.

triglycerides = assay: Triglyceride levels pre- and post-treatment; format: in vivo, human; details: for No. of subjects outside normal range, triglycerides: 15 subjects
HDL cholesterol = details: resulting from treatment, 3 weeks
Procedure: as §1, §2

LDL cholesterol = details: resulting from treatment, 3 weeks
Procedure: as §1, §2

[1] = resulting from treatment, 3 weeks

SMILES: CCC(C)(C)C(=O)O[C@H]1C[C@@H](C)C=C2C=C[C@H](C)[C@H](CC[C@@H]3C[C@@H](O)CC(=O)O3)[C@H]21 [Simvastatin, simvastatin]
- Change in Total Cholesterol Levels, Mean (total cholesterol): -76.3 mg/dL
- Change in Total Cholesterol Levels, Median (total cholesterol): -78.0 mg/dL
- Change in Total Cholesterol Levels, Min-Max (total cholesterol): -134 to -14 mg/dL
- Triglyceride Levels, Mean (triglycerides; after treatment, 3 weeks): 140.2 mg/dL
- Triglyceride Levels, Median (triglycerides; after treatment, 3 weeks): 134.0 mg/dL
- Triglyceride Levels, Min-Max (triglycerides; after treatment, 3 weeks): 58 to 440 mg/dL
- No. of subjects outside normal range, triglycerides (triglycerides; after treatment, 3 weeks): 1
- Triglyceride Levels, Mean (triglycerides; before treatment): 165.1 mg/dL
- Triglyceride Levels, Median (triglycerides; before treatment): 155.0 mg/dL
- Triglyceride Levels, Min-Max (triglycerides; before treatment): 51 to 337 mg/dL
- No. of subjects outside normal range, triglycerides (triglycerides; before treatment): 5
- Change in Triglyceride Levels, Mean (triglycerides; [1]): -24.9 mg/dL
- Change in Triglyceride Levels, Median (triglycerides; [1]): -38.0 mg/dL
- Change in Triglyceride Levels, Min-Max (triglycerides; [1]): -143 to 205 mg/dL
- Change in High Density Lipoprotein Cholesterol Levels, Mean (HDL cholesterol): 1.2 mg/dL
- Change in High Density Lipoprotein Cholesterol Levels, Median (HDL cholesterol): 0.0 mg/dL
- Change in High Density Lipoprotein Cholesterol Levels, Min-Max (HDL cholesterol): -7 to 20 mg/dL
- Change in Low Density Lipoprotein Cholesterol Levels, Mean (LDL cholesterol): -70.7 mg/dL
- Change in Low Density Lipoprotein Cholesterol Levels, Median (LDL cholesterol): -78.0 mg/dL
- Change in Low Density Lipoprotein Cholesterol Levels, Min-Max (LDL cholesterol): -121 to -20 mg/dL
